Test results taken from ChEMBL document CHEMBL1201862, “PubChem BioAssay data set” (2004).
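Dose response: 5 concentrations. Exposure: 48 h. Format: 96-well plates. Endpoint: linear interpolation; highest concentration if not reached. Here, GI50 denotes the concentration required for 50% inhibition of growth.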 Activity calls are given as the source filed them. Rule as the data show it: active = GI50 up to about 1.1 µM and inactive = higher.

Legend:
Assay in all cases: NCI-60 cell line screen, 48 h
A498 = tested on: A498
A549 = tested on: A549
Hs-578T = tested on: Hs-578T
IGROV-1 = tested on: IGROV-1
MCF7 = tested on: MCF7
MDA-MB-435 = tested on: MDA-MB-435
MOLT-4 = tested on: MOLT-4
NCI-H226 = tested on: NCI-H226
NCI-H460 = tested on: NCI-H460
NCI/ADR-RES = tested on: NCI/ADR-RES
OVCAR-5 = tested on: OVCAR-5
OVCAR-8 = tested on: OVCAR-8
RXF 393 = tested on: RXF 393
SF-539 = tested on: SF-539
SK-MEL-5 = tested on: SK-MEL-5
SW-620 = tested on: SW-620
T47D = tested on: T47D
U-251 = tested on: U-251
SN12C = tested on: SN12C
HL-60 = tested on: HL-60

Measured: GI50

O=C1CCCn2c(nc3ccccc32)N1
inactive: A498 > 100 µM | A549 > 100 µM | Hs-578T > 100 µM | IGROV-1 > 100 µM | MCF7 > 100 µM | MDA-MB-435 > 100 µM | MOLT-4 > 100 µM | NCI-H226 > 100 µM | NCI-H460 > 100 µM | NCI/ADR-RES > 100 µM | OVCAR-5 > 100 µM | OVCAR-8 > 100 µM | RXF 393 > 100 µM | SF-539 > 100 µM | SK-MEL-5 > 100 µM | SW-620 > 100 µM | T47D > 100 µM | U-251 > 100 µM

COc1ccc(N2C=Nn3c(nc4sc(C)c(C)c4c3=O)C2)cc1
inactive: A498 29.4 µM | A549 > 100 µM | Hs-578T > 100 µM | IGROV-1 > 100 µM | MCF7 > 100 µM | MDA-MB-435 > 100 µM | MOLT-4 > 100 µM | NCI-H226 > 100 µM | NCI-H460 > 100 µM | NCI/ADR-RES > 100 µM | OVCAR-5 > 100 µM | OVCAR-8 > 100 µM | RXF 393 53.3 µM | SK-MEL-5 > 100 µM | SN12C > 100 µM | SW-620 > 100 µM | T47D > 100 µM | U-251 > 100 µM

O=C(CCN1CCOCC1)c1ccc(Oc2ccc(F)cc2)cc1
inactive: A498 > 100 µM | A549 > 100 µM | HL-60 35.5 µM | Hs-578T 19.9 µM | IGROV-1 19.5 µM | MCF7 18.7 µM | MDA-MB-435 37.6 µM | MOLT-4 23.7 µM | NCI-H226 26 µM | NCI-H460 > 100 µM | NCI/ADR-RES 26.9 µM | OVCAR-5 24.2 µM | OVCAR-8 19.4 µM | SF-539 17.9 µM | SK-MEL-5 31.3 µM | SN12C 30.9 µM | SW-620 30.3 µM | T47D 18.9 µM | U-251 53.2 µM

CC(C)=C1C(=O)C[C@]2(C)C[C@H]3/C(=C(/C)CCC12)CC[C@@]3(C)O (some centres not stated)
inactive: A498 > 50 µM | A549 > 50 µM | HL-60 11.3 µM | Hs-578T > 50 µM | IGROV-1 > 50 µM | MCF7 > 50 µM | MDA-MB-435 > 50 µM | MOLT-4 14.9 µM | NCI-H226 > 50 µM | NCI/ADR-RES > 50 µM | OVCAR-5 > 50 µM | OVCAR-8 > 50 µM | RXF 393 40.9 µM | SF-539 > 50 µM | SK-MEL-5 40.4 µM | SN12C > 50 µM | SW-620 > 50 µM | T47D 46.9 µM | U-251 > 50 µM

NNC1=Nc2ccc(Cl)cc2C(=S)N2CSCC12 (configuration not stated)
inactive: A498 > 100 µM | A549 > 100 µM | Hs-578T > 100 µM | IGROV-1 > 100 µM | MCF7 > 100 µM | MDA-MB-435 > 100 µM | MOLT-4 > 100 µM | NCI-H226 > 100 µM | NCI-H460 > 100 µM | NCI/ADR-RES > 100 µM | OVCAR-5 > 100 µM | OVCAR-8 > 100 µM | RXF 393 > 100 µM | SK-MEL-5 > 100 µM | SN12C > 100 µM | SW-620 > 100 µM | T47D > 100 µM | U-251 > 100 µM

O=[N+]([O-])c1cccc(-c2ncnc(-c3cccc([N+](=O)[O-])c3)n2)c1
inactive: A498 23.9 µM | A549 > 100 µM | HL-60 36.6 µM | Hs-578T 51.2 µM | IGROV-1 > 100 µM | MCF7 > 100 µM | MDA-MB-435 > 100 µM | MOLT-4 > 100 µM | NCI-H226 > 100 µM | NCI/ADR-RES > 100 µM | OVCAR-5 > 100 µM | OVCAR-8 > 100 µM | RXF 393 18.5 µM | SK-MEL-5 > 100 µM | SN12C > 100 µM | SW-620 > 100 µM | T47D 81.8 µM | U-251 23.5 µM

Nc1ccc2nc3n(c2c1)C(c1c(F)cccc1F)SC3 (configuration not stated)
inactive: A498 > 100 µM | A549 > 100 µM | HL-60 45.3 µM | Hs-578T > 100 µM | IGROV-1 > 100 µM | MCF7 > 100 µM | MDA-MB-435 > 100 µM | MOLT-4 38.1 µM | NCI-H460 > 100 µM | NCI/ADR-RES > 100 µM | OVCAR-5 > 100 µM | OVCAR-8 > 100 µM | RXF 393 > 100 µM | SF-539 > 100 µM | SK-MEL-5 41 µM | SN12C > 100 µM | SW-620 > 100 µM | T47D > 100 µM | U-251 > 100 µM

O/N=C1/COC(C(F)(F)F)(C(F)(F)F)C1
inactive: A498 > 100 µM | A549 > 100 µM | Hs-578T > 100 µM | IGROV-1 > 100 µM | MCF7 > 100 µM | MDA-MB-435 > 100 µM | MOLT-4 > 100 µM | NCI-H226 > 100 µM | NCI-H460 > 100 µM | NCI/ADR-RES > 100 µM | OVCAR-5 > 100 µM | OVCAR-8 > 100 µM | RXF 393 > 100 µM | SF-539 > 100 µM | SK-MEL-5 > 100 µM | SN12C > 100 µM | SW-620 > 100 µM | T47D > 100 µM | U-251 > 100 µM

CC1(C)[C@@H]2CC[C@]1(C)[C@H](OC(=O)CSC#N)C2
inactive: A498 > 100 µM | A549 > 100 µM | Hs-578T > 100 µM | IGROV-1 > 100 µM | MCF7 65.9 µM | MDA-MB-435 46.2 µM | NCI-H226 > 100 µM | NCI-H460 > 100 µM | NCI/ADR-RES > 100 µM | OVCAR-5 > 100 µM | OVCAR-8 34.2 µM | RXF 393 > 100 µM | SF-539 28.7 µM | SK-MEL-5 > 100 µM | SN12C > 100 µM | SW-620 17.9 µM | T47D > 100 µM | U-251 > 100 µM

Cn1c(=O)c2c(ncn2CCSS(=O)(=O)O)n(C)c1=O
inactive: A498 > 100 µM | A549 > 100 µM | Hs-578T 74.5 µM | IGROV-1 > 100 µM | MCF7 > 100 µM | MDA-MB-435 > 100 µM | NCI-H226 > 100 µM | NCI-H460 66.4 µM | NCI/ADR-RES > 100 µM | OVCAR-5 > 100 µM | OVCAR-8 > 100 µM | RXF 393 79.1 µM | SF-539 > 100 µM | SK-MEL-5 > 100 µM | SN12C > 100 µM | SW-620 > 100 µM | T47D > 100 µM | U-251 45.8 µM

CCCCCCCCCCCC(=O)OCC(O)CO (configuration not stated) [GLYCEROL MONOLAURATE]
inactive: A498 > 100 µM | A549 54.1 µM | HL-60 12.9 µM | Hs-578T > 100 µM | MCF7 > 100 µM | MDA-MB-435 61.4 µM | MOLT-4 37.1 µM | NCI-H226 > 100 µM | NCI-H460 80.5 µM | NCI/ADR-RES > 100 µM | OVCAR-5 > 100 µM | OVCAR-8 > 100 µM | SF-539 > 100 µM | SK-MEL-5 59 µM | SN12C > 100 µM | SW-620 > 100 µM | T47D 69.3 µM | U-251 71.3 µM
